What all share (type): in vivo
The test system of assay [1] is Amaranthus retroflexus (AMARE). Briefly: Herbicidal post-emergence action, section B (Table B11). Conditions: visual rating about 3 weeks after treatment vs untreated controls. On the procedure: (§1) Seeds of mono- and dicotyledonous weed plants were placed in plastic pots in sandy loam soil (doubly sown with in each case one species of mono- or dicotyledonous weed plants per pot), covered with soil and cultivated in a greenhouse under controlled growth conditions. 2 to 3 weeks after sowing, the test plants were treated at the one-leaf stage. The compounds of the invention, formulated in the form of wettable powders (WP) or as emulsion concentrates (EC), were applied onto the green parts of the plants as aqueous suspension or emulsion with addition of 0.5% additive at a water application rate of 600 liters per hectare (converted). After the test plants had been kept in the greenhouse under optimum growth conditions for about 3 weeks, the activity of the preparations was rated visually in comparison to untreated controls. For example, 100% activity=the plants have died, 0% activity=like control plants.

The subject of assay [2] is Veronica persica (VERPE). Briefly: Herbicidal post-emergence action, section B (Table B10). Conditions: application rate 1280 g/ha; visual rating about 3 weeks after treatment vs untreated controls. On the procedure:
as §1

Assay [3] concerns Amaranthus retroflexus (AMARE). Put plainly: Herbicidal pre-emergence action, section A (Table A11). To be noted: for pest or weed control at 320 g/ha: Amaranthus retroflexus, 504 h, read-out: pre-emergence activity against AMARE in %. An excerpt: (§2) Seeds of mono- and dicotyledonous weed plants were sown in plastic pots (double sowings with one species of mono- and one species of dicotyledonous weed plants per pot), in sandy loam, and covered with soil. The compounds according to the invention, formulated in the form of wettable powders (WP) or as emulsifiable concentrates (EC), were applied to the surface of the covering soil as aqueous suspension or emulsion, with the addition of 0.5% of an additive, at an application rate of 600 l of water per hectare (converted). Following treatment, the pots were placed in a greenhouse and kept under optimum growth conditions for the test plants. The visual grading of the damage to the test plants was carried out after ca. 3 weeks in comparison to untreated controls (herbicidal effect in percent (%): 100% effect=plants have died off, 0% effect=as control plants).

The next assay has as its system Setaria viridis (SETVI). Briefly: Herbicidal pre-emergence action, section A (Table A8).
Excerpt: as §2

The subject of assay [4] is Stellaria media (STEME). Put plainly: Herbicidal pre-emergence action, section A (Table A9).
Excerpt: as §2

Assay [5] deals with Stellaria media (STEME). Briefly: Herbicidal post-emergence action, section B (Table B9). Conditions: application rate 1280 g/ha, visual rating about 3 weeks after treatment vs untreated controls. On the procedure: as §1
The next assay relates to Poa annua (POAAN). Briefly: Herbicidal pre-emergence action, section A (Table A7). Conditions: visual grading after ca. 3 weeks vs untreated controls.
Excerpt: as §2

Assay [6] has as its system Echinochloa crus-galli (ECHCG). Briefly: Herbicidal pre-emergence action, section A (Table A3). To be noted: application rate 1280 g/ha, visual grading after ca. 3 weeks vs untreated controls.
Excerpt: as §2

Assay [7] relates to Kochia scoparia (KCHSC). Put plainly: Herbicidal post-emergence action, section B (Table B4). Conditions: visual rating about 3 weeks after treatment vs untreated controls; for post-emergence activity against KCHSC in %: application rate 1280 g/ha. On the procedure:
as §1

A further assay concerns Lolium rigidum (LOLRI). Briefly: Herbicidal pre-emergence action, section A (Table A5). Conditions: Lolium rigidum, pre-emergence, 504 h; application rate 1280 g/ha; visual grading after ca. 3 weeks vs untreated controls; read-out: pre-emergence activity against LOLRI in %.
Excerpt: as §2

In assay [8] the test system is Veronica persica (VERPE). Briefly: Herbicidal pre-emergence action, section A (Table A10). Conditions: Veronica persica, 504 h, application rate 1280 g/ha, read-out: pre-emergence activity against VERPE in %.
Excerpt: as §2

Assay [9] relates to Matricaria inodora (MATIN). Briefly: Herbicidal pre-emergence action, section A (Table A6). Conditions: Tripleurospermum inodorum, pre-emergence, 504 h; application rate 1280 g/ha; visual grading after ca. 3 weeks vs untreated controls; read-out: pre-emergence activity against MATIN in %.
Excerpt: as §2

In assay [10] the test system is Digitaria sanguinalis (DIGSA). Briefly: Herbicidal pre-emergence action, section A (Table A12). Conditions: Digitaria sanguinalis, 504 h, application rate 1280 g/ha, read-out: pre-emergence activity against DIGSA in %.
Excerpt: as §2

The test system of assay [11] is Kochia scoparia (KCHSC). Put plainly: Herbicidal pre-emergence action, section A (Table A4). To be noted: Bassia scoparia, pre-emergence, 504 h; application rate 320 g/ha; visual grading after ca. 3 weeks vs untreated controls; read-out: pre-emergence activity against KCHSC in %.
Excerpt: as §2

Take `O=C(N1CSc2cc(Br)c(-c3cccc(Cl)c3F)nc21)C12CCCC1C(Cl)=NO2` (stereo not drawn) [Example I-126]: in [1] (application rate 320 g/ha), the “post-emergence activity against AMARE in %” value was determined as 90%. Moreover, in the assay with Veronica persica (VERPE) [2], the “post-emergence activity against VERPE in %” value was found to be 90%. Moreover, the “pre-emergence activity against AMARE in %” value in [3] (application rate 320 g/ha) turned out to be 90%. In addition, the “pre-emergence activity against SETVI in %” value in the assay with Setaria viridis (SETVI) (application rate 1280 g/ha) came out at 90%. Further, in the assay on Stellaria media (STEME) [4] (application rate 1280 g/ha), the “pre-emergence activity against STEME in %” value is 90%.

`Fc1c(Cl)cccc1-c1nc2c(cc1Br)SCN2` [Example I-103]: the “post-emergence activity against STEME in %” value with Stellaria media (STEME) [5] was 90%. In addition, the “pre-emergence activity against POAAN in %” value with Poa annua (POAAN) (application rate 1280 g/ha) is reported as 100%. For the same molecule, the “pre-emergence activity against ECHCG in %” value in assay [6] is reported as 90%. For the same molecule, in [3] (application rate 1280 g/ha), the “pre-emergence activity against AMARE in %” value was 90%. In addition, the “pre-emergence activity against SETVI in %” value in the assay with Setaria viridis (SETVI) (application rate 1280 g/ha) was found to be 100%. The “post-emergence activity against KCHSC in %” value in the assay with Kochia scoparia (KCHSC) [7] was 90%.

For the molecule `CCC(=O)N1C[S+]([O-])c2cc(C)c(-c3cc(F)ccc3F)nc21` (stereo not drawn) [Example I-167], the pest or weed control at 1280 g/ha in the assay with Lolium rigidum (LOLRI) was 100%; in assay [6] (Echinochloa crus-galli, pre-emergence, 504 h, read-out: pre-emergence activity against ECHCG in %) it was 100%; in the assay on Veronica persica (VERPE) [8] it was 90%; in the assay with Setaria viridis (SETVI) (Setaria viridis, 504 h, application rate 1280 g/ha, read-out: pre-emergence activity against SETVI in %), 90%; in assay [9] it was 90%; in assay [10], 100%. The pest or weed control at 320 g/ha with Poa annua (POAAN) (Poa annua, pre-emergence, 504 h, application rate 320 g/ha, read-out: pre-emergence activity against POAAN in %) turned out to be 100%; in assay [3] (application rate 320 g/ha) it was 90%; in the assay with Stellaria media (STEME) [4] (Stellaria media, 504 h, application rate 320 g/ha, read-out: pre-emergence activity against STEME in %) it was 90%.

In the case of `Cc1cc2c(nc1-c1cccc(Cl)c1F)N(S(C)(=O)=O)CS2` [Example I-111], the “pre-emergence activity against ECHCG in %” value in [6] was determined as 100%. For the same molecule, in the assay on Stellaria media (STEME) [4] (application rate 1280 g/ha), the “pre-emergence activity against STEME in %” value is on record as 90%. Besides, the “post-emergence activity against KCHSC in %” value in the assay on Kochia scoparia (KCHSC) [7] amounted to 90%.

For the molecule `Cc1cccc(-c2nc3c(cc2Br)SCN3B(N)N)c1C` [Example I-105], the “post-emergence activity against AMARE in %” value in assay [1] (application rate 1280 g/ha) is 90%.

Turning to `Cc1cc2c(nc1-c1cccc(F)c1F)N(C(=O)C(C)C)C[S+]2[O-]` (stereo not drawn) [Example I-028], the pest or weed control at 1280 g/ha in the assay with Stellaria media (STEME) [5] (Stellaria media, post-emergence, 504 h, read-out: post-emergence activity against STEME in %) was 90%; in the assay on Lolium rigidum (LOLRI) it was 100%; in the assay with Poa annua (POAAN) (Poa annua, pre-emergence, 504 h, application rate 1280 g/ha, read-out: pre-emergence activity against POAAN in %) it was 100%; in assay [9], 90%; with Stellaria media (STEME) [4] (Stellaria media, 504 h, application rate 1280 g/ha, read-out: pre-emergence activity against STEME in %), 90%; in assay [10], 100%. Moreover, the pest or weed control at 320 g/ha in the assay on Kochia scoparia (KCHSC) [11] amounted to 90%; in [3] (application rate 320 g/ha), 90%; in the assay on Setaria viridis (SETVI) (Setaria viridis, 504 h, application rate 320 g/ha, read-out: pre-emergence activity against SETVI in %), 100%; with Kochia scoparia (KCHSC) [7] (Bassia scoparia, post-emergence, 504 h, application rate 320 g/ha, read-out: post-emergence activity against KCHSC in %), 90%.

For `O=C(c1ccccc1C(F)(F)F)N1CSc2cc(Br)c(-c3ccc(F)cc3F)nc21` [Example I-043], the “post-emergence activity against AMARE in %” value in assay [1] (application rate 1280 g/ha) was determined as 90%. Moreover, in the assay on Poa annua (POAAN) (application rate 1280 g/ha), the “pre-emergence activity against POAAN in %” value is reported as 90%.

The record behind these values is patent US20240381872A1, “SUBSTITUTED 2,3-DIHYDRO[1,3]THIAZOLO[4,5-B]PYRIDINES, SALTS THEREOF AND THEIR USE AS HERBICIDALLY ACTIVE SUBSTANCES” (BAYER AKTIENGESELLSCHAFT, priority 2021, published 2024).
